Columns and labels:
Escherichia coli = assay: Antibacterial activity against Escherichia coli ATCC 11229 assessed as diameter of inhibition zone after 24 hrs by agar well diffusion method; format: functional
Staphylococcus aureus = assay: Antibacterial activity against Staphylococcus aureus ATCC 6538 assessed as diameter of inhibition zone after 24 hrs by agar well diffusion method; format: functional
Candida albicans = assay: Antifungal activity against Candida albicans ATCC 10231 assessed as diameter of inhibition zone after 24 hrs by agar well diffusion method; format: functional
B16 [1] = assay: Induction of melanin synthesis in mouse B16 cells assessed as increase in melanin content at 50 uM after 48 hrs measured by spectrophotometric method relative to control; format: functional
B16 [2] = assay: Cytotoxicity against mouse B16 cells at 50 uM after 24 hrs by CCK8 assay; format: cell-based; settings: b16, 24 h
B16 [3] = assay: Potency index, ratio of compound activity to 8-MOP activity for induction of melanin synthesis in mouse B16 cells; format: functional

| Compound | diameter of the inhibition zone (DIZ) (Escherichia coli) | diameter of the inhibition zone (DIZ) (Staphylococcus aureus) | diameter of the inhibition zone (DIZ) (Candida albicans) | Activity (B16 [1]) [%] | Activity (B16 [2]) | Ratio (B16 [3]) |
| --- | --- | --- | --- | --- | --- | --- |
| Cc1cc(=O)oc2cc(OCc3cc(-c4ccccc4)no3)ccc12 | <=7 mm | <=7 mm | <=7 mm | 153.35 | – | – |
| Cc1cc(=O)oc2cc(OCc3cc(-c4cc(F)cc(F)c4)no3)ccc12 | <=7 mm | <=7 mm | 10 mm | 176.55 | – | – |
| Cc1cc(=O)oc2cc(O)ccc12 [HYMECROMONE] | <=7 mm | <=7 mm | 7 mm | 112.2 | – | – |
| Cc1cc(=O)oc2cc(OCc3cc(-c4ccc(F)c(F)c4)no3)ccc12 | <=7 mm | <=7 mm | 10 mm | 156.64 | – | – |
| Cc1cc(=O)oc2cc(OCc3cc(-c4ccc(Cl)c(F)c4)no3)ccc12 | <=7 mm | <=7 mm | 7 mm | 182.27 | – | – |
| COc1ccccc1-c1cc(COc2ccc3c(C)cc(=O)oc3c2)on1 | <=7 mm | <=7 mm | <=7 mm | 145.05 | – | – |
| Cc1cc(=O)oc2cc(OCc3cc(-c4ccc(Cl)cc4)no3)ccc12 | <=7 mm | <=7 mm | <=7 mm | 191.96 | – | – |
| CC1(C)S[C@@H]2[C@H](NC(=O)[C@H](N)c3ccccc3)C(=O)N2[C@H]1C(=O)O [AMPICILLIN] | – | 19 mm | <=7 mm | – | – | – |
| Cc1cc(=O)oc2cc(OCc3cc(-c4ccc(F)cc4)no3)ccc12 | <=7 mm | <=7 mm | <=7 mm | 115.44 | – | – |
| Cc1cc(=O)oc2cc(OCc3cc(-c4ccc(Cl)c(Cl)c4)no3)ccc12 | <=7 mm | <=7 mm | 10 mm | 204.12 | Toxic | – |
| Cc1cc(=O)oc2cc(OCc3cc(-c4cccc(Cl)c4)no3)ccc12 | <=7 mm | <=7 mm | 7 mm | 242.18 | Toxic | 1.6 |
| COc1ccc(-c2cc(COc3ccc4c(C)cc(=O)oc4c3)on2)cc1 | <=7 mm | <=7 mm | <=7 mm | 129.45 | – | – |
| Cc1cc(=O)oc2cc(OCc3cc(-c4cccc(F)c4)no3)ccc12 | <=7 mm | <=7 mm | 7 mm | 121.15 | – | – |
| Cc1cc(=O)oc2cc(OCc3cc(-c4cccc(OC(F)(F)F)c4)no3)ccc12 | <=7 mm | <=7 mm | <=7 mm | 203.27 | Toxic | – |
| COc1c2occc2cc2ccc(=O)oc12 [METHOXSALEN] | <=7 mm | <=7 mm | <=7 mm | 149.39 | – | – |
| Cc1cc(=O)oc2cc(OCc3cc(-c4cc(Cl)cc(Cl)c4)no3)ccc12 | <=7 mm | <=7 mm | 10 mm | 389.95 | Toxic | 2.6 |
| Cc1cc(=O)oc2cc(OCc3cc(-c4cc(I)ccc4F)no3)ccc12 | <=7 mm | <=7 mm | <=7 mm | 169.71 | – | – |
| Cc1cc(=O)oc2cc(OCc3cc(-c4ccc5c(c4)OCCO5)no3)ccc12 | <=7 mm | <=7 mm | <=7 mm | 178.33 | – | – |
| C[C@@H]1[C@H](O)[C@@H](C)/C=C/C=C/C=C/C=C/C=C/C=C/C=C/[C@H](O[C@@H]2O[C@H](C)[C@@H](O)[C@H](N)[C@@H]2O)C[C@@H]2O[C@](O)(C[C@@H](O)C[C@@H](O)[C@H](O)CC[C@@H](O)C[C@@H](O)CC(=O)O[C@H]1C)C[C@H](O)[C@H]2C(=O)O [AMPHOTERICIN B] | <=7 mm | <=7 mm | 11 mm | – | – | – |
